Tests used:
[1] = cited from earlier work
[2] = Relaxation dynamics of hyperpolarized [1-13C]pyruvate (build-up time Tb and T1)
Text: In addition, the relaxation dynamics of the [1-^13C]pyruvate were also studied.
In addition, relaxation dynamics at earth field and 1.8 T are about the same as a non-fluorinated SABRE catalyst T1=28.9±1.6 s and 66.5±7 s, respectively.

[3] = as above; remark: listed apart in the source
[4] = Example 7: Example 4 catalyst, DMSO, methanol
[5] = Example 25: Example 4 catalyst, DMSO, NFBME/MeOD fluorous mixture
[6] = Example 31: Example 4 catalyst, DMSO, CD3OD/Novec 7100
[7] = Example 32: Example 4 catalyst, PTMSO, CD3OD/Novec 7100

SMILES	H2 solubility in water [1]	T1 at 1.8T [2, 4] [s]	T1 at earth field [2, 4] [s]	T1 at 1.8T [2, 5] [s]	T1 at earth field [2, 5] [s]	T1 at 1.8T [2, 6] [s]	T1 at earth field [2, 6] [s]	T1 at 1.8T [2, 7] [s]	T1 at earth field [2, 7] [s]	T1 (relaxation at 0.4 μT) [3, 4] [s]	T1 (relaxation at 0.4 μT) [3, 5] [s]	T1 (relaxation at 0.4 μT) [3, 6] [s]	T1 (relaxation at 0.4 μT) [3, 7] [s]
[HH] [Example H2]	about 1.6 mg/L	–	–	–	–	–	–	–	–	–	–	–	–
CC(=O)C(=O)O [[1-^13C]pyruvate, sodium [1-^13C]pyruvate]	–	66.5 ± 7	28.9 ± 1.6	16.0 ± 1.4	9.0 ± 1.9	66.5 ± 3.6	9.3 ± 0.8	59.0 ± 8.1	14.9 ± 1.0	16.1 ± 0.9	11.3 ± 1.3	12.6 ± 1.1	18.0 ± 0.8

Source: patent US20240216900A1, “SABRE CATALYSTS CONTAINING FLUORINATED CARBON CHAINS FOR DELIVERY OF METAL-FREE MRI CONTRAST AGENTS” (The U.S.A., as represented by the Secretary, Department of …, priority 2022, published 2024)
